Blank lines part the entries; values can stand above or below the compound they belong to.
Key:
[1] = Analysis of metabolites in mouse plasma (radio-HPLC); assay type: in vivo, mice; conditions: for Percentage of intact tracer in plasma: mouse plasma, 30 min post-injection, radio-HPLC, n=4; for Metabolism in vivo (mouse plasma): within 30 min post-injection
Description: [^11C]1 (37–56 MBq/0.73–0.95 nmol) or [^11C]2 (46–61 MBq/1.1–1.5 nmol) was intravenously injected into mice (aged 7–9 weeks, weighing 33–43 g, n = 4). Mice were euthanized by cervical dislocation at 30 min post-injection. Blood samples taken by heart puncture were collected into heparinized syringes. Samples were centrifuged at 13,000×g (Model 5500, KUBOTA, Tokyo, Japan) for 3 min at 4 °C to obtain plasma (0.1–0.2 mL). Plasma samples were added to equivalent volumes of 1 mol/L ammonium acetate solution. Samples were directly loaded into the injector loop, and analyzed using the combination of column-switching HPLC and on-line solid-phase extraction as a modification of the previously described procedures (Chitneni et al. [2008]; Gillings [2009]; Greuter et al. [2005]; Hilton et al. [2000]; Kawamura et al. [2013]). HPLC analysis was performed using the radio-HPLC system for metabolite analysis mentioned in the ‘General’ section above, and also using a Cadenza HS-C18 column (3 μm mesh, 10 mm i.d. × 150 mm length; Imtakt, Kyoto, Japan) fitted with a Cadenza HS-C18 guard cartridge (3 μm mesh, 10 mm i.d. × 8 mm length; Imtakt). Elution was performed using a 0.1 mol/L ammonium acetate solution for 3 min after loading, a mixture of 90% acetonitrile solution and water (0:100 to 40:60, vol./vol.) from 3 to 4 min after loading, and then a mixture of 90% acetonitrile solution and water (40:60, vol./vol.) from 4 to 12 min after loading. The flow rate was 4 mL/min. The retention times of [^11C]1 and [^11C]2 were 10.0 and 10.5 min, respectively.

[2] = Biodistribution of radioactivity in mice after tracer injection; assay type: in vivo; conditions: for Radioactivity level, blood / Radioactivity level, brain / Radioactivity level, heart / Radioactivity level, kidney / Radioactivity level, liver / Radioactivity level, lung / Radioactivity level, muscle / Radioactivity level, pancreas / Radioactivity level, small intestine / Radioactivity level, spleen: mean±S.D. n=4
Description: [^11C]1 (13 MBq/0.12 nmol) or [^11C]2 (15 MBq/0.36 nmol) was intravenously injected into mice (aged 7–8 weeks, weighing 33–38 g, n = 4). Mice were euthanized by cervical dislocation at 5, 15, 30, or 60 min post-injection.
(§1) Blood samples were collected by heart puncture. Tissues were dissected and weighed. The radioactivity in samples was measured with an automatic gamma counter (Wizard 3′′ 1480, PerkinElmer, Waltham, MA, USA). The tissue uptake of radioactivity was expressed as the percentage of injected dose detected per gram of sample (%ID/g, tissue radioactivity/g tissue/injected radioactivity × 100).

P-gp and BCRP = test: Effect of pretreatment with elacridar on tissue distribution of radioactivity; assay type: in vivo, mice; conditions: 30 min post-injection, elacridar 5 mg/kg 20-30 min before tracer, vs control
Description: The effects of pretreatment with 1 (BMS-193885) or the ABC transporter-inhibitor elacridar (inhibiting drug efflux transporters, mainly P-gp and BCRP) on tissue distributions of radioactivity were investigated. [^11C]1 (7.1–14 MBq/0.079–0.23 nmol) or [^11C]2 (6.0 MBq/0.16 nmol) was intravenously injected into mice (aged 7–8 weeks, weighing 32–36 g, n = 4–8) 20–30 min after the administration of the solution of 1 (10 mg/kg body weight [b.w.]/0.1 mL water containing 20% Tween 80), elacridar (5 mg/kg b.w./0.1 mL water), or a control fluid (0.1 mL water). Mice were euthanized by cervical dislocation at 30 min post-injection.
as §1

Percentage of intact tracer in plasma [1]: 11.8 ± 2.5% | Metabolism in vivo (mouse plasma) [1]: rapidly metabolized | Radioactivity level, blood ([2]; 5 min after i.v. injection): 0.76±0.07 %ID/g | Radioactivity level, blood ([2]; 15 min after i.v. injection): 0.60±0.06 %ID/g | Radioactivity level, blood ([2]; 30 min after i.v. injection): 0.50±0.04 %ID/g | Radioactivity level, blood ([2]; 60 min after i.v. injection): 0.46±0.06 %ID/g | Radioactivity level, brain ([2]; 5 min after i.v. injection): 0.21±0.01 %ID/g | Radioactivity level, brain ([2]; 15 min after i.v. injection): 0.40±0.06 %ID/g | Radioactivity level, brain ([2]; 30 min after i.v. injection): 0.32±0.05 %ID/g | Radioactivity level, brain ([2]; 60 min after i.v. injection): 0.32±0.05 %ID/g | Radioactivity level, heart ([2]; 5 min after i.v. injection): 1.93±0.23 %ID/g | Radioactivity level, heart ([2]; 15 min after i.v. injection): 1.38±0.04 %ID/g | Radioactivity level, heart ([2]; 30 min after i.v. injection): 1.10±0.05 %ID/g | Radioactivity level, heart ([2]; 60 min after i.v. injection): 0.82±0.07 %ID/g | Radioactivity level, kidney ([2]; 5 min after i.v. injection): 17.41±1.12 %ID/g | Radioactivity level, kidney ([2]; 15 min after i.v. injection): 14.06±1.00 %ID/g | Radioactivity level, kidney ([2]; 30 min after i.v. injection): 12.93±1.01 %ID/g | Radioactivity level, kidney ([2]; 60 min after i.v. injection): 13.37±2.72 %ID/g | Radioactivity level, liver ([2]; 5 min after i.v. injection): 16.09±1.85 %ID/g | Radioactivity level, liver ([2]; 15 min after i.v. injection): 8.82±2.28 %ID/g | Radioactivity level, liver ([2]; 30 min after i.v. injection): 5.05±0.40 %ID/g | Radioactivity level, liver ([2]; 60 min after i.v. injection): 4.09±1.60 %ID/g | Radioactivity level, lung ([2]; 5 min after i.v. injection): 5.08±1.12 %ID/g | Radioactivity level, lung ([2]; 15 min after i.v. injection): 3.43±0.28 %ID/g | Radioactivity level, lung ([2]; 30 min after i.v. injection): 2.72±0.21 %ID/g | Radioactivity level, lung ([2]; 60 min after i.v. injection): 2.13±0.36 %ID/g | Radioactivity level, muscle ([2]; 5 min after i.v. injection): 0.64±0.05 %ID/g | Radioactivity level, muscle ([2]; 15 min after i.v. injection): 0.57±0.08 %ID/g | Radioactivity level, muscle ([2]; 30 min after i.v. injection): 0.52±0.11 %ID/g | Radioactivity level, muscle ([2]; 60 min after i.v. injection): 0.47±0.07 %ID/g | Radioactivity level, pancreas ([2]; 5 min after i.v. injection): 3.40±0.46 %ID/g | Radioactivity level, pancreas ([2]; 15 min after i.v. injection): 3.75±0.35 %ID/g | Radioactivity level, pancreas ([2]; 30 min after i.v. injection): 3.64±0.22 %ID/g | Radioactivity level, pancreas ([2]; 60 min after i.v. injection): 3.70±0.41 %ID/g | Radioactivity level, small intestine ([2]; 5 min after i.v. injection): 6.98±2.37 %ID/g | Radioactivity level, small intestine ([2]; 15 min after i.v. injection): 9.11±1.31 %ID/g | Radioactivity level, small intestine ([2]; 30 min after i.v. injection): 11.02±1.44 %ID/g | Radioactivity level, small intestine ([2]; 60 min after i.v. injection): 12.43±1.54 %ID/g | Radioactivity level, spleen ([2]; 5 min after i.v. injection): 3.18±0.67 %ID/g | Radioactivity level, spleen ([2]; 15 min after i.v. injection): 2.05±0.17 %ID/g | Radioactivity level, spleen ([2]; 30 min after i.v. injection): 1.66±0.04 %ID/g | Radioactivity level, spleen ([2]; 60 min after i.v. injection): 1.41±0.24 %ID/g | Change of radioactivity level in blood by pretreatment with elacridar (P-gp and BCRP; blood): significantly increased | Change of radioactivity level in brain by pretreatment with elacridar (P-gp and BCRP): significantly increased | Change of radioactivity level in heart by pretreatment with elacridar (P-gp and BCRP): significantly increased | Change of radioactivity level in kidney by pretreatment with elacridar (P-gp and BCRP): significantly decreased | Change of radioactivity level in lung by pretreatment with elacridar (P-gp and BCRP; lung): significantly increased | Change of radioactivity level in muscle by pretreatment with elacridar (P-gp and BCRP; muscle): significantly increased
Compound: COC(=O)C1=C(C)NC(C)=C(C(=O)OC)C1c1cccc(NC(=O)NCCCN2CCC(c3cccc(O[11CH3])c3)CC2)c1 [[^11C]1]

Percentage of intact tracer in plasma [1]: 19.9 ± 2.4% | Metabolism in vivo (mouse plasma) [1]: rapidly metabolized | Radioactivity level, blood ([2]; 5 min after i.v. injection): 0.65±0.05 %ID/g | Radioactivity level, blood ([2]; 15 min after i.v. injection): 0.21±0.01 %ID/g | Radioactivity level, blood ([2]; 30 min after i.v. injection): 0.17±0.02 %ID/g | Radioactivity level, blood ([2]; 60 min after i.v. injection): 0.19±0.20 %ID/g | Radioactivity level, brain ([2]; 5 min after i.v. injection): 0.05±0.02 %ID/g | Radioactivity level, brain ([2]; 15 min after i.v. injection): 0.04±0.04 %ID/g | Radioactivity level, brain ([2]; 30 min after i.v. injection): 0.01±0.00 %ID/g | Radioactivity level, brain ([2]; 60 min after i.v. injection): 0.03±0.01 %ID/g | Radioactivity level, heart ([2]; 5 min after i.v. injection): 0.69±0.09 %ID/g | Radioactivity level, heart ([2]; 15 min after i.v. injection): 0.42±0.02 %ID/g | Radioactivity level, heart ([2]; 30 min after i.v. injection): 0.28±0.04 %ID/g | Radioactivity level, heart ([2]; 60 min after i.v. injection): 0.14±0.04 %ID/g | Brain penetration ([2]; judged from brain radioactivity at 30 min): penetrated the brain poorly | Radioactivity level, kidney ([2]; 5 min after i.v. injection): 13.25±1.18 %ID/g | Radioactivity level, kidney ([2]; 15 min after i.v. injection): 10.96±0.51 %ID/g | Radioactivity level, kidney ([2]; 30 min after i.v. injection): 9.89±0.52 %ID/g | Radioactivity level, kidney ([2]; 60 min after i.v. injection): 9.23±1.61 %ID/g | Radioactivity level, liver ([2]; 5 min after i.v. injection): 29.54±1.57 %ID/g | Radioactivity level, liver ([2]; 15 min after i.v. injection): 24.28±3.04 %ID/g | Radioactivity level, liver ([2]; 30 min after i.v. injection): 15.54±4.41 %ID/g | Radioactivity level, liver ([2]; 60 min after i.v. injection): 8.43±2.71 %ID/g | Radioactivity level, lung ([2]; 5 min after i.v. injection): 1.00±0.08 %ID/g | Radioactivity level, lung ([2]; 15 min after i.v. injection): 0.79±0.11 %ID/g | Radioactivity level, lung ([2]; 30 min after i.v. injection): 0.82±0.13 %ID/g | Radioactivity level, lung ([2]; 60 min after i.v. injection): 0.65±0.08 %ID/g | Radioactivity level, muscle ([2]; 5 min after i.v. injection): 0.44±0.21 %ID/g | Radioactivity level, muscle ([2]; 15 min after i.v. injection): 0.30±0.02 %ID/g | Radioactivity level, muscle ([2]; 30 min after i.v. injection): 0.38±0.17 %ID/g | Radioactivity level, muscle ([2]; 60 min after i.v. injection): 0.33±0.19 %ID/g | Radioactivity level, pancreas ([2]; 5 min after i.v. injection): 1.20±0.18 %ID/g | Radioactivity level, pancreas ([2]; 15 min after i.v. injection): 1.27±0.11 %ID/g | Radioactivity level, pancreas ([2]; 30 min after i.v. injection): 1.18±0.18 %ID/g | Radioactivity level, pancreas ([2]; 60 min after i.v. injection): 1.15±0.13 %ID/g | Radioactivity level, small intestine ([2]; 5 min after i.v. injection): 15.78±6.51 %ID/g | Radioactivity level, small intestine ([2]; 15 min after i.v. injection): 30.77±8.94 %ID/g | Radioactivity level, small intestine ([2]; 30 min after i.v. injection): 27.23±12.69 %ID/g | Radioactivity level, small intestine ([2]; 60 min after i.v. injection): 13.52±4.25 %ID/g | Radioactivity level, spleen ([2]; 5 min after i.v. injection): 0.79±0.11 %ID/g | Radioactivity level, spleen ([2]; 15 min after i.v. injection): 0.55±0.07 %ID/g | Radioactivity level, spleen ([2]; 30 min after i.v. injection): 0.37±0.07 %ID/g | Radioactivity level, spleen ([2]; 60 min after i.v. injection): 0.23±0.05 %ID/g | Change of radioactivity level in brain by pretreatment with elacridar (P-gp and BCRP): not increased | Change of radioactivity level in heart by pretreatment with elacridar (P-gp and BCRP): significantly increased | Change of radioactivity level in kidney by pretreatment with elacridar (P-gp and BCRP): significantly decreased | Change of radioactivity level in liver by pretreatment with elacridar (P-gp and BCRP; liver): significantly increased
Compound: COC(=O)C1=C(C)NC(C)=C(C(=O)OC)C1c1cccc(N[11C](=O)NCCCN2CCC(c3cccc(O)c3)CC2)c1 [[^11C]2]

Reference: PMC6379498, “Radiosynthesis and in vivo evaluation of ^11C-labeled BMS-193885 and its desmethyl analog as PET tracers for neuropeptide Y1 receptors” (EJNMMI Radiopharmacy and Chemistry, 2019)
